The values that follow come from patent publication US20250120999A1 (priority 2022, published 2025).

Several values for one entry are separate records, joined by “and”; a condition that tells them apart may be missing. Equal entries are not always repeated. Marks after values point to notes of the source that are not given here.

In assay [1] the test system is MPXV A29. It counts as binding, monkeypox virus (MPXV).
Assay [2] concerns MPXV A35 protein. It counts as binding, monkeypox virus (MPXV).
Assay [3] relates to MPXV A29. It counts as binding, monkeypox virus (MPXV). This is another data set of the same source.
Assay [4] has as its system MPXV L1R. It counts as binding, monkeypox virus (MPXV).
For assay [5], the system named is MPXV A35 protein. It counts as binding, monkeypox virus (MPXV). The source holds these as a separate data set.
For assay [6], the system named is MPXV A29 protein. It counts as binding, monkeypox virus (MPXV).
The test system of assay [7] is SARS-CoV-2 wild-type. To be noted: cited from earlier work.
For assay [8], the system named is SARS-CoV-2 Delta (B.1.617.2). To be noted: cited from earlier work.

For chondroitin-4,6-sulfate [CSE], in assay [1], the ka is 4858 M⁻¹ s⁻¹ and the kd is reported as 1.5 × 10^−3 (±4.7 × 10^−5) s^−1.
For heparin, the ka in assay [2] is listed as 1.8 × 10^3 M^−1S^−1. For the same substance, the Kd (as a rule, the concentration at which binding is half-saturated) is 0.22 µM in assay [2] (read-out: KD heparin-A35 interaction) and 0.25 µM in assay [1] (read-out: KD heparin-A29 interaction). The “inhibition of MPXV A29 binding to surface-immobilized heparin” value was 30% in assay [3] and 60% in assay [6]. Further, the kd in assay [1] is 7.1 × 10^−3 (±5.0 × 10^−5) s^−1. The “binding between MPXV L1R protein and heparin (in words)” value in assay [4] is “essentially no binding”. Moreover, the “Normalized A35 protein binding (%)” value in assay [5] is on record as 27.7* %. Further, the “inhibition of MPXV A35 binding to surface-immobilized heparin” value (from here on “inhibition of MPXV A35 binding”) in assay [5] worked out at 72%. For the same substance, the “Normalized A29 protein binding (%)” value in assay [6] is on record as 43.3* %.
As to dermatan sulfate [DS], the “binding of GAG chip to MPXV A35 protein (in words)” value in assay [2] was “neither CS nor DS showed binding”. Besides, in assay [1], the ka is 4487 M⁻¹ s⁻¹ and the kd is 2.8 × 10^−3 (±2.6 × 10^−5) s^−1.
For the substance mucopolysaccharide polysulfate [MPS], in assay [3], the “inhibition of MPXV A29 binding to heparin surface (in words)” value (“inhibition … (in words)” for short) is “strongest inhibition” and the “inhibition of MPXV A29 binding to surface-immobilized heparin” value turned out to be 69%.
For the substance chondroitin-4-sulfate [CSA], in assay [1], the ka was 3730 M⁻¹ s⁻¹ and the kd is on record as 3.2 × 10^−3 (±5.4 × 10^−5) s^−1.
As for “[→3)-α-Fuc2,4S-(1→3)-αFuc2S-(1→3)-α-Fuc2S-(1→3)-α-Fuc4S-(1→]n [LvSF]”, in assay [5], the “Normalized A35 protein binding (%)” value is given as 16.9* %, the “ability to inhibit A35-surface-immobilized heparin interaction (in words)” value is “showed the ability to inhibit” and the “inhibition of MPXV A35 binding” value turned out to be 83.1%. In assay [6], the “Normalized A29 protein binding (%)” value was 23.6* %, the “ability to inhibit A29-surface-immobilized heparin interaction (in words)” value is given as “showed the ability to inhibit” and the “inhibition of MPXV A29 binding to surface-immobilized heparin” value was determined as 76.4%.
For the substance “[→3)-α-GalNAcX(1→4)-β-GlcA-[(3→1)Y]-(1→]n, where X=4S (80%), 6S (10%), or non-sulfated (10%), and Y=−Fuc2,4S (40%), αFuc2,4S-(1→4)-α-Fuc (30%), or α-Fuc4S (30%) [PpFucCS]”, in assay [5], the “Normalized A35 protein binding (%)” value is 19.0* %, the “ability to inhibit A35-surface-immobilized heparin interaction (in words)” value was “showed the ability to inhibit” and the “inhibition of MPXV A35 binding” value turned out to be 89%. Moreover, in assay [6], the “Normalized A29 protein binding (%)” value was 13.0* %, the “ability to inhibit A29-surface-immobilized heparin interaction (in words)” value is “showed the ability to inhibit” and the “inhibition of MPXV A29 binding to surface-immobilized heparin” value is recorded as 87%.
Regarding chondroitin sulfate [CS], the “binding of GAG chip to MPXV A35 protein (in words)” value in assay [2] was “neither CS nor DS showed binding”.
On to “6-O-desulfated heparin [6-desulfated heparin]”, for which the “inhibition … (in words)” value in assay [3] is “weaker inhibition”.
Still for that read-out and setting: then N-desulfated heparin, with “weaker inhibition”.
As to “[→3)-β-GalNAc4,6S-(1→4)β-GlcA-[(3→1)Y]-(1→]n, where Y=α-Fuc2,4S (96%) or α-Fuc4S (4%) [IbFucCS]”, in assay [7], the “inhibitory activity against SARS-CoV-2 wild-type (in words)” value is “showed inhibitory activity”. In addition, in assay [8], the “inhibitory activity against SARS-CoV-2 Delta (in words)” value is reported as “showed inhibitory activity”. For the same substance, in assay [5], the “Normalized A35 protein binding (%)” value is listed as 20.1* %; the “ability to inhibit A35-surface-immobilized heparin interaction (in words)” value is “showed the ability to inhibit”; the “inhibition of MPXV A35 binding” value is 79.9% and 77%. Further, in assay [6], the “Normalized A29 protein binding (%)” value was 7.6* %; the “ability to inhibit A29-surface-immobilized heparin interaction (in words)” value is recorded as “showed the ability to inhibit”; the “inhibition of MPXV A29 binding to surface-immobilized heparin” value is 91.5% and 86.1%.
For the substance pentosan polysulfate [PPS], in assay [3], the “inhibition … (in words)” value is listed as “strongest inhibition” and the “inhibition of MPXV A29 binding to surface-immobilized heparin” value is given as 62%.
Take “[→3)-α-Fuc2,4S-(1→3)-α-Fuc2S-(1→3)-α-Fuc2S-(1→3)-α-Fuc-(1→]n [IbSF]”: in assay [7], the “inhibitory activity against SARS-CoV-2 wild-type (in words)” value is listed as “showed inhibitory activity”. Also, in assay [8], the “inhibitory activity against SARS-CoV-2 Delta (in words)” value was “showed inhibitory activity”. In addition, in assay [5], the “Normalized A35 protein binding (%)” value is on record as 24.3* %; the “ability to inhibit A35-surface-immobilized heparin interaction (in words)” value is “showed the ability to inhibit”; the “inhibition of MPXV A35 binding” value was 75.8% and 77.4%. In addition, in assay [6], the “Normalized A29 protein binding (%)” value is given as 5.0** %; the “ability to inhibit A29-surface-immobilized heparin interaction (in words)” value was “showed the ability to inhibit”; the “inhibition of MPXV A29 binding to surface-immobilized heparin” value is 95% and 92.4%.
“2-O-desulfated IdoA heparin [2-desulfated heparin]”: the “inhibition … (in words)” value in assay [3] is given as “weaker inhibition”.
On to “[→3)-β-GalNAc4,6S-(1→4)-β-GlcA-[(3→1)Y]-(1→]n, where Y=αFuc2,4S (45%), α-Fuc3,4S (35%), or α-Fuc4S (20%) [HfFucCS]”, for which, in assay [5], the “Normalized A35 protein binding (%)” value is on record as 23.0* % and the “ability to inhibit A35-surface-immobilized heparin interaction (in words)” value is “showed the ability to inhibit”. Besides, in assay [6], the “Normalized A29 protein binding (%)” value was 13.9* % and the “ability to inhibit A29-surface-immobilized heparin interaction (in words)” value was “showed the ability to inhibit”.
“[→3)-α-Fuc2,4S-(1→3)-α-Fuc-(1→3)-α-Fuc2S-(1→3)-α-Fuc2S-(1→]n [HfSF]”: in assay [5], the “Normalized A35 protein binding (%)” value was 23.9* % and the “ability to inhibit A35-surface-immobilized heparin interaction (in words)” value is recorded as “showed the ability to inhibit”. In addition, in assay [6], the “Normalized A29 protein binding (%)” value is 8.5** % and the “ability to inhibit A29-surface-immobilized heparin interaction (in words)” value is given as “showed the ability to inhibit”.
